The subject of the assay is P388 leukemia ip, CD2F1 mice, survival T/C. Briefly: NCI In Vivo Anticancer Drug Screen. Data for tumor model P388 Leukemia (intraperitoneal) in CD2F1 (CDF1) mice. The settings on record: endpoint: median survival time, higher = longer survival. In outline:
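Mice carrying the transplanted tumor received test compound or vehicle. Survival was recorded in each group, and the value is the treated-group measurement divided by that of the vehicle-treated control group.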

Where [1] appears, read: dose: 25.0 mg/kg/injection, schedule: Q01DX009 (ip), vehicle: Klucel (hydroxypropylcellulose) (HPC).
[2] abbreviates: dose: 50.0 mg/kg/injection, schedule: Q01DX009 (ip), vehicle: Klucel (hydroxypropylcellulose) (HPC).
The mark [3] stands for this setting: dose: 100.0 mg/kg/injection, schedule: Q01DX009 (ip), vehicle: Klucel (hydroxypropylcellulose) (HPC).
[4] abbreviates: dose: 200.0 mg/kg/injection, schedule: Q01DX009 (ip), vehicle: Klucel (hydroxypropylcellulose) (HPC).
[5] abbreviates: dose: 50.0 mg/kg/injection, schedule: Q01DX009 (ip), vehicle: saline with Tween-80.
Setting [6] is: dose: 100.0 mg/kg/injection, schedule: Q01DX009 (ip), vehicle: saline with Tween-80.
Where [7] appears, read: dose: 200.0 mg/kg/injection, schedule: Q01DX009 (ip), vehicle: saline with Tween-80.
Setting [8] is: dose: 50.0 mg/kg/injection, schedule: Q01DX009 (ip), vehicle: saline.
Where [9] appears, read: dose: 100.0 mg/kg/injection, schedule: Q01DX009 (ip), vehicle: saline.

Here are results for 18 compounds from PubChem BioAssay AID330 (DTP/NCI, 2004).

Molecules are shown by their SMILES. Several values for one entry are separate records, joined by “and”; a condition that tells them apart may be missing. Equal values may be shown once. Toxic doses and inconclusive results are not listed. Square brackets hold non-standard residues; d marks the D form. Peptide text beside a SMILES is read from it. ξ: configuration not given here. ξPhe(4-N(CH2CH2Cl)2) = NC(Cc1ccc(N(CCCl)CCCl)cc1)C(=O)O; Aad = N[CH](CCCC(=O)O)C(=O)O

In the case of `C[C@]12CCC(=O)C(O)=C1CC[C@@H]1[C@@H]2CC[C@]2(C)C(=O)CC[C@@H]12`, the T/C was 111 % of control and 96 % of control (dose: 12.5 mg/kg/injection, schedule: Q01DX009 (ip), vehicle: Klucel (hydroxypropylcellulose) (HPC)); 100 % of control and 111 % of control under setting [1]; 105 % of control and 106 % of control under setting [2]; 92 % of control and 93 % of control under setting [3]; 92 % of control and 96 % of control under setting [4]; 111 % of control and 88 % of control (dose: 400.0 mg/kg/injection, schedule: Q01DX009 (ip), vehicle: Klucel (hydroxypropylcellulose) (HPC)).
Regarding `CC(C)(OCc1ccccc1)c1ccccc1[P+](C)(c1ccccc1)c1ccccc1`, the T/C (dose: 100.0 mg/kg/injection, schedule: Q01DX001 (ip), vehicle: Klucel (hydroxypropylcellulose) (HPC)) is 109 % of control and the T/C (dose: 200.0 mg/kg/injection, schedule: Q01DX001 (ip), vehicle: Klucel (hydroxypropylcellulose) (HPC)) was 113 % of control.
On to `CCOC(=O)C(Cc1ccc(N(CCCl)CCCl)cc1)NC(=O)C(CCC(=O)O)NC(=O)C(Cc1ccc(O)cc1)NC(=O)C(CCCC(=O)O)NC(=O)C(N)Cc1ccc(O)cc1` (centres undefined) (H-Y[Aad]YE[ξPhe(4-N(CH2CH2Cl)2)]-OEt; configuration not given here), for which the T/C is 162 % of control under setting [1]; 173 % of control and 186 % of control under setting [2]; 189 % of control and 230 % of control under setting [3]; 218 % of control and 220 % of control under setting [4].
In the case of `C=C1C(=O)O[C@@H]2CCC[C@H]12`, the T/C runs as follows: (dose: 12.5 mg/kg/injection, schedule: Q01DX009 (ip), vehicle: water) 105 % of control; (dose: 25.0 mg/kg/injection, schedule: Q01DX009 (ip), vehicle: water) 112 % of control; (dose: 50.0 mg/kg/injection, schedule: Q01DX009 (ip), vehicle: water) 112 % of control; (dose: 100.0 mg/kg/injection, schedule: Q01DX009 (ip), vehicle: water) 108 % of control; (dose: 200.0 mg/kg/injection, schedule: Q01DX009 (ip), vehicle: water) 112 % of control.
Take `COC(=O)C1c2ccccc2CC(=O)N1NC(C)=O` (centres undefined): the T/C was 104 % of control under setting [2] and 101 % of control under setting [3].
As for `CN(C)C(=O)Oc1ccc(Br)cc1`, the T/C is 101 % of control under setting [5], 94 % of control under setting [6] and 103 % of control under setting [7].
Turning to `COc1ccc2c(c1)OC(C)(C)C(c1ccccc1)=C2c1ccc(OCCBr)c([N+](=O)[O-])c1`, the T/C is 107 % of control (dose: 50.0 mg/kg/injection, schedule: Q01DX005 (ip), vehicle: Klucel (hydroxypropylcellulose) (HPC)); 98 % of control (dose: 100.0 mg/kg/injection, schedule: Q01DX005 (ip), vehicle: Klucel (hydroxypropylcellulose) (HPC)); 101 % of control (dose: 200.0 mg/kg/injection, schedule: Q01DX005 (ip), vehicle: Klucel (hydroxypropylcellulose) (HPC)).
Consider `CCOC(OCC)C(=O)NNS(=O)(=O)c1ccc(C)cc1`, for which the T/C reads like this: (dose: 12.5 mg/kg/injection, schedule: Q01DX009 (ip), vehicle: other) 105 % of control; (dose: 25.0 mg/kg/injection, schedule: Q01DX009 (ip), vehicle: other) 106 % of control; (dose: 50.0 mg/kg/injection, schedule: Q01DX009 (ip), vehicle: other) 100 % of control; (dose: 100.0 mg/kg/injection, schedule: Q01DX009 (ip), vehicle: other) 99 % of control; (dose: 200.0 mg/kg/injection, schedule: Q01DX009 (ip), vehicle: other) 90 % of control.
On to `COc1ccc(OC)c(N=Cc2ccc(C=Nc3cc(OC)ccc3OC)cc2)c1`, for which the T/C runs as follows: under setting [8], 101 % of control; under setting [9], 101 % of control.
As to `CN(C/C=C/CN(C)C(=O)Nc1ccccc1)C(=O)Nc1ccccc1`, the T/C runs as follows: under setting [8], 96 % of control; under setting [9], 100 % of control; (dose: 200.0 mg/kg/injection, schedule: Q01DX009 (ip), vehicle: saline) 89 % of control.
For the compound `O=C1/C(=C/c2ccccc2[N+](=O)[O-])Cc2ccccc21`, the T/C was 103 % of control under setting [5]; 94 % of control under setting [6]; 103 % of control under setting [7]; 97 % of control (dose: 400.0 mg/kg/injection, schedule: Q01DX009 (ip), vehicle: saline with Tween-80).
On to `C=Cn1c([N+](=O)[O-])cnc1/C=C/c1ccc(C(=O)O)cc1`, for which the T/C is 92 % of control and 97 % of control under setting [2]; 89 % of control and 90 % of control under setting [3]; 95 % of control under setting [4].
Turning to `COc1cc2c(c(OC)c1OC)-c1cccc(=O)cc1C(NC(C)=O)CC2` (centres undefined), the T/C runs as follows: (dose: 1.25 mg/kg/injection, schedule: Q01DX009 (ip), vehicle: Klucel (hydroxypropylcellulose) (HPC)) 121 % of control; (dose: 2.5 mg/kg/injection, schedule: Q01DX005 (ip), vehicle: saline) 100 % of control; (dose: 5.0 mg/kg/injection, schedule: Q01DX005 (ip), vehicle: saline) 101 % of control; (dose: 5.0 mg/kg/injection, schedule: Q01DX009 (ip), vehicle: Klucel (hydroxypropylcellulose) (HPC)) 150 % of control and 155 % of control; (dose: 10.0 mg/kg/injection, schedule: Q01DX005 (ip), vehicle: saline) 104 % of control; (dose: 10.0 mg/kg/injection, schedule: Q01DX009 (ip), vehicle: Klucel (hydroxypropylcellulose) (HPC)) 176 % of control and 179 % of control. The T/C is, setting by setting: (dose: 20.0 mg/kg/injection, schedule: Q01DX005 (ip), vehicle: saline) 99 % of control; (dose: 20.0 mg/kg/injection, schedule: Q01DX009 (ip), vehicle: Klucel (hydroxypropylcellulose) (HPC)) 233 % of control and 250 % of control; (dose: 40.0 mg/kg/injection, schedule: Q01DX005 (ip), vehicle: saline) 104 % of control.
Take `Cc1cc(NC(=O)Nc2cccc(C3=NCCN3)c2)ccc1NC(=O)Nc1cccc(C2=NCCN2)c1`: the T/C reads like this: (dose: 100.0 mg/kg/injection, schedule: Q04DX003 (ip), vehicle: saline with Tween-80) 108 % of control; (dose: 200.0 mg/kg/injection, schedule: Q04DX003 (ip), vehicle: saline with Tween-80) 108 % of control; (dose: 400.0 mg/kg/injection, schedule: Q04DX003 (ip), vehicle: saline with Tween-80) 120 % of control.
`O=C(O)CCC(=O)C(Cc1ccccc1)NC(=O)c1ccccc1` (centres undefined): the T/C is 94 % of control (dose: 50.0 mg/kg/injection, schedule: Q01DX005 (ip), vehicle: saline with Tween-80); 91 % of control (dose: 60.0 mg/kg/injection, schedule: Q01DX005 (ip), vehicle: saline with Tween-80); 89 % of control (dose: 100.0 mg/kg/injection, schedule: Q01DX005 (ip), vehicle: saline with Tween-80); 100 % of control (dose: 120.0 mg/kg/injection, schedule: Q01DX005 (ip), vehicle: saline with Tween-80); 100 % of control (dose: 200.0 mg/kg/injection, schedule: Q01DX005 (ip), vehicle: saline with Tween-80); 98 % of control (dose: 240.0 mg/kg/injection, schedule: Q01DX005 (ip), vehicle: saline with Tween-80).
On to `COc1ccc(N=C=S)cc1N=C=S`, for which the T/C was 95 % of control (dose: 6.25 mg/kg/injection, schedule: Q04DX003 (ip), vehicle: saline with Tween-80); 104 % of control (dose: 12.5 mg/kg/injection, schedule: Q04DX003 (ip), vehicle: saline with Tween-80); 104 % of control (dose: 25.0 mg/kg/injection, schedule: Q04DX003 (ip), vehicle: saline with Tween-80).
For `Cc1[nH]ccc2c(C)c3nc4ccccc4c3cc12`, the T/C by setting is: (dose: 6.25 mg/kg/injection, schedule: Q04DX002 (ip), vehicle: water) 108 % of control; (dose: 12.5 mg/kg/injection, schedule: Q04DX002 (ip), vehicle: water) 121 % of control; (dose: 25.0 mg/kg/injection, schedule: Q01DX009 (ip), vehicle: saline with Tween-80) 163 % of control; (dose: 25.0 mg/kg/injection, schedule: Q04DX002 (ip), vehicle: water) 123 % of control; under setting [5], 113 % of control; (dose: 100.0 mg/kg/injection, schedule: Q04DX002 (ip), vehicle: water) 153 % of control. In addition, the T/C is 157 % of control (dose: 160.0 mg/kg/injection, schedule: Q04DX002 (ip), vehicle: distilled water + Tween-80); 166 % of control (dose: 200.0 mg/kg/injection, schedule: Q04DX002 (ip), vehicle: water); 188 % of control (dose: 320.0 mg/kg/injection, schedule: Q04DX002 (ip), vehicle: distilled water + Tween-80).
On to `CCOC(=O)C([NH-])C([NH-])C(=O)OCC.[Cl][Pt+2][Cl]` (centres undefined), for which the T/C reads like this: (dose: 12.5 mg/kg/injection, schedule: Q04DX002 (ip), vehicle: saline with Tween-80) 163 % of control; (dose: 25.0 mg/kg/injection, schedule: Q04DX002 (ip), vehicle: saline with Tween-80) 164 % of control.
